Experimental findings from patent publication US20250073184A1, “CANNABIGEROQUINONE COMPOUNDS, COMPOSITIONS INCLUDING SUCH COMPOUNDS, AND USES OF SUCH COMPOUNDS AND COMPOSITIONS” (Juva Life, Inc., priority 2021, published 2025) are described below.

pIC50: −log10 of the molar value.

In data set [1] the target is T1, cannabinoid receptor 1 (CNR1) (Homo sapiens, UniProt P21554).
T1 construct: host or cells: CHO-K1
Description: CB1 receptor agonist assay (cAMP Hunter eXpress, CNR1 CHO-K1 cells). In kind it is cell-based. As to conditions: agonist mode, Forskolin-stimulated cAMP. How it is done:
(§1) The assays were performed in cAMP Hunter eXpress cells engineered to overexpress naturally Gi/Go-coupled wildtype cannabinoid receptor 1 (CNR1) or cannabinoid receptor 2 (CNR2) in CHO-K1 cell type. In these cells, CB1 and/or […] agonists inhibit production of intracellular cAMP in response to stimulation with Forskolin. cAMP levels are determined using luminogenic detection reagents provided with the Hunter eXpress cAMP detection kit.
(§2) • Assay ready CNR1 CHO-K1 cells were obtained from Eurofins/Discover X, cat #95-0071E2 • Assay ready CNR2 CHO-K1 cells were obtained from Eurofins/Discover X, cat #95-0183E2 • Hunter eXpress cAMP detection kit was also from Discover X. The kit includes all cAMP detection reagents, Forskolin, complete cell plating medium and cell assay buffer.
The Assay-Ready CNR1 CHO-K1 or CNR2 CHO-K1 cells were thawed and re-suspended in pre-warmed Assay Complete plating medium and inoculated into 96 well plate at a density of 30,000 cells in 100 μL. The plates with cells were incubated for 24 h at 37° C. in 5% CO2. […] The cells were stimulated with the Forskolin/compound buffer for 30 min. […] The plate was read on Biotek Synergy Neo2 reader in luminescent mode. […] Relative luminescence units (RLUs) were plotted against compound concentration to determine apparent EC50 values of the agonist compounds.

Data set [2] addresses T2, cannabinoid receptor 2 (CNR2) (Homo sapiens, UniProt P34972).
T2 construct: host or cells: CHO-K1
Description: CB2 receptor agonist assay (cAMP Hunter eXpress, CNR2 CHO-K1 cells). In kind it is cell-based. How it is done:
as §1, §2
The Assay-Ready CNR1 CHO-K1 or CNR2 CHO-K1 cells were thawed and re-suspended in pre-warmed Assay Complete plating medium and inoculated into 96 well plate at a density of 30,000 cells in 100 μL. The plates with cells were incubated for 24 h at 37° C. in 5% CO2. […] The cells were stimulated with the Forskolin/compound buffer for 30 min. After stimulation, 15 μL of cAMP antibody reagent and 60 μL of cAMP working detection solution were added to the cells and, the cells were incubated for 1 h at room temperature. After 1 h incubation, 60 μL of cAMP Solution A was added to the wells and the plate was incubated for 3 h at room temperature. The plate was read on Biotek Synergy Neo2 reader in luminescent mode. CB1 and CB2 agonists should reduce cAMP production in response to Forskilin. Relative luminescence units (RLUs) were plotted against compound concentration to determine apparent EC50 values of the agonist compounds.

The test system of data set [3] is SK-MEL-28 melanoma cell line. Description: SK-MEL-28 cell line toxicity (Cell titer Glo viability). In kind it is cell-based. Particulars: SK-MEL-28, 72 h. How it is done:
(§3) Culture medium were purchased from ATCC, USA.
• General cell culture reagents and plastic. • 384-Well Flat white Poly-styrene TC-Treated Microplates (Corning). • 384 well poly-propylene plates (acoustic grade, Labcyte) for compound dilution. • Cell titer Glo luminescent Cell Viability reagent (Cat #G7571, Promega).
(§4) 90 nL DMSO is added to control wells. […] Luminescence was then recorded using Synergy Neo2Multi-mode Reader.
A general note: Cellular ATP, detected with luciferase, serves as a proxy for viable cell number.

Data set [4] relates to HL-60 acute promyelocytic leukemia cell line. Description: HL-60 cell line toxicity (Cell titer Glo viability). Particulars: HL-60, 72 h. How it is done:
The half maximal inhibition concentration (IC50) for each compound was determined by harvesting cells during the logarithmic growth period and then counting cell number using hemocytometer. […] Then, using a Biomek FX, test articles were serially diluted (10 mM top, 3× dilution intervals) along with a reference inhibitor (1 mM top, 3× dilution intervals) in acoustic grade Labcyte plate. Then, using an acoustic dispenser (Labcyte550), compounds were added as serially diluted to plate with cells: 90 nL of serially diluted compounds per well. 90 nL DMSO is added to control wells. Test plates were incubated for 72 h in the humidified incubator at 37° C. with 5% CO2. 25 μL of reconstituted Cell titer Glo reagent was added to each well. Each test plate was then incubated for 20 min at room temperature. Luminescence was then recorded using Synergy Neo2Multi-mode Reader.
In order to calculate intersect IC50, a dose-response curve was fitted using nonlinear regression model with a sigmoidal dose response.
The formula for calculating surviving rate is shown below, and the intersect IC50 was calculated according to the dose-response curve generated by the software:
The compounds of interest were assessed cell viability in the HL-60 acute promyelocytic leukemia cell line (ATCC® CCL-240). […] Culture medium were purchased from ATCC, USA.

In data set [5] the test system is PC3 prostate adenocarcenoma cell line. Description: PC3 cell line toxicity (Cell titer Glo viability). Particulars: PC3, 72 h. In kind it is cell-based. The method, then: as §4, §3

T2 sequence (P34972 whole entry): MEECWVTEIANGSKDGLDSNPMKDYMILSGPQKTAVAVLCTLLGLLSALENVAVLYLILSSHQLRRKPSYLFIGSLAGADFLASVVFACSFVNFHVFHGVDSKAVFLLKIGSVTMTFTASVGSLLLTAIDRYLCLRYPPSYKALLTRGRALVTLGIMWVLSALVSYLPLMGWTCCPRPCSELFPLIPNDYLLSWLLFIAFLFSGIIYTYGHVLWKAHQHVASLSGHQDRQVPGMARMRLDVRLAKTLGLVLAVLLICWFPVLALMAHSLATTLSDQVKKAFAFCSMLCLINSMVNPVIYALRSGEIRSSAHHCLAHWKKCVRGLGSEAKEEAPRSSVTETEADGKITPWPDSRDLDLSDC
T1 sequence (P21554 whole entry): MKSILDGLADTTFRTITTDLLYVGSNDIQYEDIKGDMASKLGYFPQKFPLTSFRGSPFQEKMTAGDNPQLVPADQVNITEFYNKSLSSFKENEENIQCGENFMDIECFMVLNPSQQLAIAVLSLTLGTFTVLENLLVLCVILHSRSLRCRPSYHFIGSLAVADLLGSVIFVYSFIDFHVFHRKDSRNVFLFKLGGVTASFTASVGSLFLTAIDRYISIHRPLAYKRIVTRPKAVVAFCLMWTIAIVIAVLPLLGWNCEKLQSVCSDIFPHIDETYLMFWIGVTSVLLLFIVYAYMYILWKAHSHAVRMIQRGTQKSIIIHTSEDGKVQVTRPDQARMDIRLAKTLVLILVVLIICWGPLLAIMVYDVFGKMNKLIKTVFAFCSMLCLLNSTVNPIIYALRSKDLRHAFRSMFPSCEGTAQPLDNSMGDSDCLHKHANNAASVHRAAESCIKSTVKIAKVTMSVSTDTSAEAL

As usually defined, the pIC50 is the IC50 on a negative log10 scale, so that one unit is a factor of ten. On to `CCCCCc1cc(O)c2c(c1)OC(C)(C)C1CCC(CO)=CC21` (stereo not drawn) [11-hydroxy-THC], for which the pIC50 in data set [1] was 9.00; in data set [2] (agonist mode, Forskolin-stimulated cAMP, CNR2 CHO-K1 cells), 7.29. For the same compound, in data set [2] (ratio of agonist IC50 values), the “Selectivity for CB2 over CB1 (fold)” value is given as 0.02 fold.
On to `CN[C@@H]1C[C@H]2O[C@@](C)([C@@H]1OC)n1c3ccccc3c3c4c(c5c6ccccc6n2c5c31)C(=O)NC4` [Staurosporine, staurosporine, reference compound], for which the pIC50 was around 6.68 in data set [3] (Homo sapiens) and around 8.40 in data set [5] (Homo sapiens, PC-3). In addition, the “Cell Viability (%)” value in data set [3] (0.041 uM) stood at 70.0%; in data set [3] (0.12 uM) it was 53.9%; in data set [3] (0.37 uM), 41.1%; in data set [3] (1.1 uM) it was 33.0%; in data set [3] (3.3 uM) it was 17.3%; in data set [3] (10 uM) it was 8.55%. Moreover, the “Cell Viability (%)” value in data set [3] (30 uM) was determined as 8.85%; in data set [4] (0.014 uM) it was 66.6%; in data set [4] (0.041 uM), 36.3%; in data set [4] (0.12 uM), 27.7%; in data set [4] (0.37 uM), 18.7%; in data set [4] (1.1 uM), 13.9%. Besides, the “Cell Viability (%)” value in data set [4] (3.3 uM) stood at 11.7%; in data set [4] (10 uM), 10.4%; in data set [4] (30 uM), 9.6%; in data set [5] (0.0015 uM), 67.1%; in data set [5] (0.0046 uM) it was 43.2%; in data set [5] (0.014 uM), 34.5%. Moreover, the “Cell Viability (%)” value was 12.7% in data set [5] (0.041 uM); 10.3% in data set [5] (0.12 uM); 9.5% in data set [5] (0.37 uM); 8.4% in data set [5] (1.1 uM); 8.1% in data set [5] (3.3 uM); 6.8% in data set [5] (10 uM). The “Cell Viability (%)” value in data set [5] (30 uM) came to 7.1%.
